Columns and labels:
Type in all cases: cell-based
[1] = test system: Staphylococcus aureus IF013276; assay: Dual minimum inhibitory concentration (agar dilution MIC) of 1,2-octanediol combined with a fragrance component, Staphylococcus aureus; details: fragrance component combined with 1,2-octanediol (50:50 by weight mixture); agar medium, 35° C., growth judged after two days
Protocol: (§1) Candida albicans IFO1594 (mycotic stomatitis), Staphylococcus aureus IF013276 (Staphylococcus aureus), and Pseudomonas aeruginosa IF013275 (Pseudomonas) are used as sample bacterias.
(§2) For preparing bacteria, as to Staphylococcus aureus and Pseudomonas, they are incubated at 35° C. in the agar medium, and further incubated at 35° C. after transferred into the bouillon medium. The inoculating bacteria is prepared by diluting the obtained culture solution to about 10^8 inoculating cell/ml.
(§3) With a dilution solvent of ethyl cellosolve of 20 w/w %, 1,2-octanediol solution of 5, 4, 3, 2.5, 2.25, 2, 1.75, 1.5, 1.25 and 1 w/v % are prepared.
(§4) While, as to thymol and the 50:50 by weight mixture of 1,2-octanediol and thymol, the dilution series are prepared by doubling diluting the 20w/v % solution.
(§5) 1 ml of each of the above-mentioned dilution series including the test material and 9 ml of the agar medium are introduced to each schales, and the above-mentioned inoculating bacteria was applied on each of the schales at the length of 1 cm.
(§6) Staphylococcus aureus and Pseudomonas were incubated at 35° C., and it was judged whether or not the bacteria had grown two days later. The yeast was incubated at 25° C., and it was judged whether or not the bacteria had grown three days later.
(§7) Each MIC of the obtained 1,2-octanediol, thymol, and the 50:50 mixture by weight of 1,2-octanediol and thymol corresponding the compounding amount of 1,2-octanediol and thymol is plotted to make out the dual minimum inhibitory concentration. Action and effect in case that two kinds of antibacterial materials are compounded can be judged by the dual minimum inhibitory concentration. More specifically, the actions caused by compounding two antibacterial materials are roughly classified into synergistic action, additive action and counteraction. Synergistic action is the action in that two kinds of agent act synergistically, to enhance the antibacterial activity that the agents originally have. The additive action is the action in that the antibacterial activities of the agents are put together. The counteraction is the action in that one agent cancels the antibacterial activity of the other agent.
(§8) The method using dual minimum inhibitory concentration, as shown in FIG. 1 for example, is the method to measure MICs as to material A and Material B at different proportions of them and to judge the result in view of the graph. In this method, a line is drawn to connect MIC (point A) in using only material A to MIC (point B) in using only material B. When the MIC (point C) in using both materials is inside the line, it is judged to be Synergistic action that antibacterial activity was strengthened by the combined use. When the MIC (point D) is on the line, it can be judged to be the additive action. When the MIC (point E) is in the outside of the line, it is judged to be the counteraction that cancels antibacterial activity of one or both of the materials to decrease the antibacterial activity.
(§9) The antibacterial effect in the case of mixing 1,2-octanediol and thymol was evaluated by the following evaluation criterion from dual minimum inhibitory concentration diagram in FIG. 2.

[2] = test system: Pseudomonas aeruginosa IF013275; assay: Dual minimum inhibitory concentration (agar dilution MIC) of 1,2-octanediol combined with a fragrance component, Pseudomonas aeruginosa; details: fragrance component combined with 1,2-octanediol (50:50 by weight mixture); agar medium, 35° C., growth judged after two days
Protocol: as §1, §2, §3, §4, §5
Staphylococcus aureus and Pseudomonas were incubated at 35° C., and it was judged whether or not the bacteria had grown two days later. […]
as §9

Candida albicans IFO1594 = assay: Dual minimum inhibitory concentration (agar dilution MIC) of 1,2-octanediol combined with a fragrance component, Candida albicans; details: fragrance component combined with 1,2-octanediol (50:50 by weight mixture); agar medium, 25° C., growth judged after three days
Protocol: as §1
As to yeast (Candida albicans), the inoculating bacteria is prepared by incubating the yeast in the same way as Staphylococcus aureus and Pseudomonas at 30° C. and diluting the yeast to about 10^7 cell/ml.
as §3, §4, §5, §6, §7, §8, §9

Escherichia coli IFO3972 = assay: Dual minimum inhibitory concentration (agar dilution MIC) of 1,2-octanediol combined with a fragrance component, Escherichia coli; set-up: key: ◯: There is synergistic action in the antibacterial effect.; Δ: There is additive action in the antibacterial effect.; ×: There is counteraction in the antibacterial effect; details: fragrance component combined with 1,2-octanediol (50:50 by weight mixture); same way as Embodiment 1, E. coli instead of P. aeruginosa
Protocol: as §2, §3, §4
1 ml of each of the above-mentioned dilution series including the test material and 9 ml of the agar medium are introduced to each schales, and the above-mentioned inoculating bacteria was applied on each of the schales at the length of 1 cm. […]
as §9
Manipulating each of citronellol and β-pinene for fragrance component in the same way as in Embodiment 1 using Escherichia coli IFO3972 instead of Pseudomonas aeruginosa IF013275, each dual minimum inhibitory concentration of FIGS. 6-7 was obtained. […] From the obtained result, the antibacterial effect was evaluated by the above-mentioned evaluation criterion.

| Molecule | antibacterial effect of mixing with 1,2-octanediol, judged from dual minimum inhibitory concentration diagram, S. aureus [1] | antibacterial effect of mixing with 1,2-octanediol, judged from dual minimum inhibitory concentration diagram, P. aeruginosa [2] | antibacterial effect of mixing with 1,2-octanediol, judged from dual minimum inhibitory concentration diagram, C. albicans (Candida albicans IFO1594) | antibacterial effect of mixing with 1,2-octanediol, judged from dual minimum inhibitory concentration diagram, E. coli (Escherichia coli IFO3972) |
| --- | --- | --- | --- | --- |
| CC(=O)O[C@@H]1C[C@H]2CC[C@]1(C)C2(C)C (racemic) [isobornyl acetate, reference compound] | ∘ |  |  |  |
| C=CCc1ccc(O)c(OC)c1 [Eugenol] | ∘ | ∘ | ∘ |  |
| Cc1ccc(C(C)C)c(O)c1 [Thymol] | ∘ | ∘ | ∘ |  |
| CC(C)=CCCC(C)CC=O (stereo not drawn) [citronellal] | ∘ |  | ∘ |  |
| CC(C)=CCCC(C)CCO (stereo not drawn) [citronellol] | ∘ |  | ∘ | ∘ |
| CC(=O)OC(C)(C)C1CC=C(C)CC1 (stereo not drawn) [terpinyl acetate] | ∘ |  | ∘ |  |
| C=C1CCC2CC1C2(C)C (stereo not drawn) [β-pinene] | ∘ |  | ∘ | Δ |
| guaiac acetate [reference compound] | ∘ |  |  |  |

Reference: patent US7632871B2, “Methods of making and methods of using antiseptic disinfectant, cosmetic and toiletries, medicine or food containing the same” (Mandom Corporation, priority 2002, dated 2009)
